The NIST ThermoML archive (doi:10.1016/j.tca.2012.06.011)
Values joined by “and” are separate entries in the source; they are usually repeats but may differ in a detail not shown here. Equal entries are not always repeated. Numbers after ± are expanded uncertainties.

What was measured:
[1] = 101 kPa, Liquid; for viscosity: Capillary tube (Ostwald / Ubbelohde) method; for mass density: Vibrating tube method
[2] = xn = mol fraction of the nth substance listed; conditions: 101 kPa, Liquid; for viscosity: Capillary tube (Ostwald / Ubbelohde) method; for mass density: Vibrating tube method

Structure (SMILES)	viscosity ([1]; 298.15 K) [mPa·s]	mass density ([1]; 298.15 K) [kg/m3]	viscosity ([1]; 303.15 K) [mPa·s]	mass density ([1]; 303.15 K) [kg/m3]	viscosity ([1]; 308.15 K) [mPa·s]	mass density ([1]; 308.15 K)	viscosity ([1]; 313.15 K) [mPa·s]	mass density ([1]; 313.15 K) [kg/m3]	viscosity ([1]; 323.15 K) [mPa·s]	mass density ([1]; 323.15 K) [kg/m3]	further results
CN1CCNCC1 [N-methylpiperazine]	1.854 ± 0.024	899.28 ± 0.13	1.583 ± 0.02	894.9 ± 0.13	1.409 ± 0.017	890.5 ± 0.13 kg/m3	1.258 ± 0.015	886.07 ± 0.13	1.064 ± 0.013	877.28 ± 0.13	
C1C[C@@H]2[C@H]3CC[C@H](C3)[C@@H]2C1 [exo-tetrahydrodicyclopentadiene] + CN1CCNCC1											viscosity ([2]; 298.15 K, x2 = 0): 2.8 ± 0.043 mPa·s; mass density ([2]; 298.15 K, x2 = 0): 931.29 ± 0.76 kg/m3; viscosity ([2]; 303.15 K, x2 = 0): 2.549 ± 0.039 mPa·s; mass density ([2]; 303.15 K, x2 = 0): 927.38 ± 0.75 kg/m3; viscosity ([2]; 308.15 K, x2 = 0): 2.332 ± 0.036 mPa·s; mass density ([2]; 308.15 K, x2 = 0): 923.45 ± 0.75 kg/m3; viscosity ([2]; 313.15 K, x2 = 0): 2.124 ± 0.033 mPa·s; mass density ([2]; 313.15 K, x2 = 0): 919.54 ± 0.75 kg/m3; viscosity ([2]; 323.15 K, x2 = 0): 1.811 ± 0.028 mPa·s; mass density ([2]; 323.15 K, x2 = 0): 911.7 ± 0.74 kg/m3
CCN(CC)CC [triethylamine] + C1C[C@@H]2[C@H]3CC[C@H](C3)[C@@H]2C1											viscosity ([2]; 298.15 K, x1 = 1): 0.366 ± 0.005 mPa·s; mass density ([2]; 298.15 K, x1 = 1): 724.21 ± 0.25 kg/m3; viscosity ([2]; 303.15 K, x1 = 1): 0.34 ± 0.005 mPa·s; mass density ([2]; 303.15 K, x1 = 1): 719.54 ± 0.25 kg/m3; viscosity ([2]; 308.15 K, x1 = 1): 0.334 ± 0.004 mPa·s; mass density ([2]; 308.15 K, x1 = 1): 714.84 ± 0.25 kg/m3; viscosity ([2]; 313.15 K, x1 = 1): 0.331 ± 0.004 mPa·s; mass density ([2]; 313.15 K, x1 = 1): 710.1 ± 0.25 kg/m3; viscosity ([2]; 323.15 K, x1 = 1): 0.298 ± 0.004 mPa·s; mass density ([2]; 323.15 K, x1 = 1): 700.71 ± 0.25 kg/m3
C1C[C@@H]2[C@H]3CC[C@H](C3)[C@@H]2C1 [exo-tetrahydrodicyclopentadiene]	2.8 ± 0.043	931.29 ± 0.76	2.549 ± 0.039	927.38 ± 0.75	2.332 ± 0.036	923.45 ± 0.75 kg/m3 and 923.46 ± 0.75 kg/m3	2.124 ± 0.033	919.54 ± 0.75	1.811 ± 0.028	911.7 ± 0.74	
CCN(CC)CC [triethylamine]	0.366 ± 0.005	724.21 ± 0.25	0.34 ± 0.005	719.54 ± 0.25	0.334 ± 0.004	714.84 ± 0.25 kg/m3	0.331 ± 0.004	710.1 ± 0.25	0.298 ± 0.004	700.71 ± 0.25	
